How the values were obtained:
Type in all cases: cell-based, human
OVCAR-3 cells [1] = assay: Mitotic figures analysis by confocal microscopy, OVCAR-3; conditions: 4 nM paclitaxel combined with 2.7 V/cm pk-pk, 200 kHz TTFields, 72 hours, OVCAR-3, compared to control and single treatments
Procedure: (§1) The human ovarian carcinoma cell line A2780 was obtained from the European Collection of Cell Cultures. The human ovarian adenocarcinoma cell lines OVCAR-3 (HTB-161) and Caov-3 (HTB-75) were obtained from the American Type Culture Collection (ATCC). Paclitaxel (Sigma Aldrich, Rehovot, Israel) dissolved in DMSO was used at the following concentrations: 1 nM, 2 nM, 4 nM, 10 nM, and 100 nM.
(§2) TTFields were applied in vitro using special ceramic Petri dishes with two pairs of transducer arrays printed perpendicularly on the outer walls of a Petri dish. The inner surfaces of the electrodes were coated with a high dielectric constant ceramic (lead magnesium niobate-lead titanate (PMN-PT)). The transducer arrays were connected to a sinusoidal waveform generator which generated fields at 200 kHz in the medium. By selectively activating the signals that were applied to the electrodes, the orientation of the TTFields was switched 90° every 1 second, thus covering the majority of the orientation axis of cell divisions, as previously described by Kirson et al. During the experiment, temperature was measured by 2 thermistors (Omega Engineering, Stamford, Conn.) attached to the walls of the Petri dish. All cells suspensions were grown on a cover slip inside the Petri dish and treated with TTFields at intensity of 2.7 V/cm. […]

A2780 cells [2] = assay: Cell cycle analysis by flow cytometry, A2780; conditions: 8 hours
Procedure: (§3) The human ovarian carcinoma cell line A2780 was obtained from the European Collection of Cell Cultures. The human ovarian adenocarcinoma cell lines OVCAR-3 (HTB-161) and Caov-3 (HTB-75) were obtained from the American Type Culture Collection (ATCC). Paclitaxel (Sigma Aldrich, Rehovot, Israel) dissolved in DMSO was used at the following concentrations: 1 nM, 2 nM, 4 nM, 10 nM, and 100 nM. TTFields were applied in vitro using special ceramic Petri dishes with two pairs of transducer arrays printed perpendicularly on the outer walls of a Petri dish. The inner surfaces of the electrodes were coated with a high dielectric constant ceramic (lead magnesium niobate-lead titanate (PMN-PT)). […] By selectively activating the signals that were applied to the electrodes, the orientation of the TTFields was switched 90° every 1 second, thus covering the majority of the orientation axis of cell divisions, as previously described by Kirson et al. During the experiment, temperature was measured by 2 thermistors (Omega Engineering, Stamford, Conn.) attached to the walls of the Petri dish. […] Cell cycle distribution was then quantified using iCyt EC800. Fluorescence signals were collected at the wavelengths of 525/50 nm for Annexin V and 665/30 nm for 7-AAD. The data was analyzed using the Flowjo software. […]

OVCAR-3 cells [3] = assay: Cell cycle analysis by flow cytometry, OVCAR-3; conditions: 72 hours
Procedure: as §3

Caov-3 cells [4] = assay: Cell cycle analysis by flow cytometry, Caov-3; conditions: 72 hours
Procedure: as §3

A2780 cells [5] = assay: Mitotic figures analysis by confocal microscopy, A2780; conditions: 4 nM paclitaxel combined with 2.7 V/cm pk-pk, 200 kHz TTFields, 72 hours, A2780, compared to control and single treatments
Procedure: as §1, §2

Caov-3 cells [6] = assay: Mitotic figures analysis by confocal microscopy, Caov-3; conditions: 4 nM paclitaxel combined with 2.7 V/cm pk-pk, 200 kHz TTFields, 72 hours, Caov-3, compared to control and single treatments
Procedure: as §1, §2

[7] = paclitaxel alone, without TTFields
[8] = low dose paclitaxel (2, 4 and 10 nM) combined with TTFields (2.7 V/cm, 200 kHz)

`CC(=O)O[C@H]1C(=O)[C@@]2(C)[C@H]([C@H](OC(=O)c3ccccc3)[C@]3(O)C[C@H](OC(=O)[C@H](O)[C@@H](NC(=O)c4ccccc4)c4ccccc4)C(C)=C1C3(C)C)[C@]1(OC(C)=O)CO[C@@H]1C[C@@H]2O` [paclitaxel] was tested, and the “mitotic figures (mitotic arrest)” value (OVCAR-3 cells [1]) was “substantial increase in mitotic figures”, the “cells in the G2/M phase” value (A2780 cells [2]; low dose paclitaxel combined with TTFields (2.7 V/cm, 200 kHz)) was “accumulated in the G2/M phase even after a short treatment duration” and the “cells in the G2/M phase” value (A2780 cells [2]; [7]) was “accumulated in the G2/M phase in a dose dependent manner”. The “number of cells in the G2/M phase” value (OVCAR-3 cells [3]; [8]) was “dramatically increased”, the “cells in the G2/M phase” value (OVCAR-3 cells [3]; [7]) was “accumulated in the G2/M phase in a dose dependent manner” and the “number of cells in the G2/M phase” value (Caov-3 cells [4]; [8]) was “dramatically increased”. For the same compound, the “cells in the G2/M phase” value (Caov-3 cells [4]; [7]) was “accumulated in the G2/M phase in a dose dependent manner”, the “mitotic figures (mitotic arrest)” value (A2780 cells [5]) was “substantial increase in mitotic figures” and the “mitotic figures (mitotic arrest)” value (Caov-3 cells [6]) was “substantial increase in mitotic figures”.
